The values below come from US11339144B2 (Navitor Pharmaceuticals, Inc., priority 2017, dated 2022).

Test [1] addresses HA-GST-Rheb (GTP-γ-S loaded) activating mTORC1 (Homo sapiens (Human), UniProt Q15382). The experiment in a line: Rheb-dependent in vitro kinase assay (Rheb-IVK; LanthaScreen or Western readout). It counts as biochemical. Particulars: Rheb-dependent in vitro kinase assay; read-out: IVK IC50. For orientation: TR-FRET usually uses a lanthanide donor and a delayed reading to cut background.

For a further test, the target named is Rheb (Homo sapiens (Human), UniProt Q15382). The test is described as follows: Affinity Selection Mass Spectrometry (ASMS). Particulars: affinity (R3/R0) in Affinity Selection Mass Spectrometry assay. It counts as binding. The procedure, abridged:
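Human Rheb (60 μM) with GDP (180 μM) and each compound at 2 μM, protein-plus versus protein-minus, incubated 30 min at room temperature, then washed by 10 kDa ultrafiltration. Retained ligand was released with MeCN and detected by UPLC-Q-TOF MS.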

Rheb, sequence (Q15382 1-169 limits assumed): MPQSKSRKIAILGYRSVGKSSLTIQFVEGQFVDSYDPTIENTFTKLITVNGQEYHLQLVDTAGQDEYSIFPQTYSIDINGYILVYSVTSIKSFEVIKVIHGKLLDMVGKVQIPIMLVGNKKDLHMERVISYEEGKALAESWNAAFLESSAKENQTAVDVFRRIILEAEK
HA-GST-Rheb (GTP-γ-S loaded) activating mTORC1, sequence (Q15382 1-181): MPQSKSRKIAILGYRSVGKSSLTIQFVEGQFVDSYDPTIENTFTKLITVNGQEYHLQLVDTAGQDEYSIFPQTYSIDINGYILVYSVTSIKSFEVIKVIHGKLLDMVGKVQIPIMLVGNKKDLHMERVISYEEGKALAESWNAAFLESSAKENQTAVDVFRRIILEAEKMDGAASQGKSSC

The term IC50 denotes the concentration that gives 50% inhibition. With `Cc1cc(Sc2ccc(Cl)cc2)c2cc(C(=O)O)[nH]c2c1Br` [I-64, 7-bromo-4-(4-chlorophenylthio)-6-methyl-1H-indole-2-carboxylic acid], the IC50 in test [1] lay in the range of 10 to 100 µM. In addition, the “ASMS (R3/R0)” value on Rheb was “B (an affinity (R3/R0) between 100% and 20%)”.
With `CN1CCN(c2cccc(NC(=O)c3cc4c(Sc5ccc(Cl)cc5Cl)cc(Cl)c(Cl)c4[nH]3)c2)CC1` [I-33, 6,7-dichloro-4-(2,4-dichlorophenylthio)-N-(3-(4-methylpiperazin-1-yl)phenyl)-1H-indole-2-carboxamide], the IC50 in test [1] is below 10 µM. Further, the “ASMS (R3/R0)” value at Rheb was “A (an affinity (R3/R0)>100%)”.
The matching figures for `OCc1nc2c(OCC3CCCC(O)C3)c(Cl)c(Cl)cc2[nH]1` (centres unmarked) [I-396, 3-((5,6-dichloro-2-(hydroxymethyl)-1H-benzo[d]imidazol-4-yloxy)methyl)cyclohexanol]: 10 to 100 µM and “C (an affinity (R3/R0)<20%)”.
The matching figures for `OCc1nc2c(OCC3CCCCC3O)cc(Cl)cc2[nH]1` (centres unmarked) [I-390, 2-((6-chloro-2-(hydroxymethyl)-1H-benzo[d]imidazol-4-yloxy)methyl)cyclohexanol]: 100 to 300 µM and “C (an affinity (R3/R0)<20%)”.
On the same counts, the results for `Fc1cccc(Oc2cccc3[nH]ccc23)c1` [I-282, 4-(3-fluorophenoxy)-1H-indole] are 100 to 300 µM and “C (an affinity (R3/R0)<20%)”.
On to `CN(CCO)C(=O)c1ccc(Cn2c(C(=O)O)cc3c(Br)cc(Oc4ccccc4)cc32)cc1` [I-69, 4-bromo-1-(4-((2-hydroxyethyl)(methyl)carbamoyl)benzyl)-6-phenoxy-1H-indole-2-carboxylic acid], for which the IC50 in test [1] lay in the range of 10 to 100 µM. Further, at Rheb, the “ASMS (R3/R0)” value was “C (an affinity (R3/R0)<20%)”.
`Cc1nc2c(OCc3ccc(Cl)cc3)c(Cl)c(Cl)cc2[nH]1` [I-340]: the half-inhibitory concentration (IC50) in test [1] is above 100 µM. Further, the “ASMS (R3/R0)” value on Rheb was “B (an affinity (R3/R0) between 100% and 20%)”.
Regarding `OCc1cc2c(Oc3ccccc3Cl)cc(Cl)cc2[nH]1` [I-216, (6-chloro-4-(2-chlorophenoxy)-1H-indol-2-yl)methanol], in test [1], the IC50 was 10 to 100 µM. On Rheb, the “ASMS (R3/R0)” value was “B (an affinity (R3/R0) between 100% and 20%)”.
Take `O=C(O)c1cc2c(Oc3cc(Cl)ccc3Cl)cc(Cl)cc2[nH]1` [I-172, 6-Chloro-4-(2,5-dichlorophenoxy)-1H-indole-2-carboxylic acid]: in test [1], the IC50 lay in the range of 10 to 100 µM. Further, on Rheb, the “ASMS (R3/R0)” value is “B (an affinity (R3/R0) between 100% and 20%)”.
As for `Clc1ccc(Sc2cc(Cl)cc3[nH]c(-c4ccnc5[nH]ccc45)nc23)cc1` [I-326, 6-chloro-4-(4-chlorophenylthio)-2-(1H-pyrrolo[2,3-b]pyridin-4-yl)-1H-benzo[d]imidazole], the half-inhibitory concentration (IC50) in test [1] lay in the range of 10 to 100 µM. The “ASMS (R3/R0)” value at Rheb is “B (an affinity (R3/R0) between 100% and 20%)”.
With `OCc1nc2c(OC[C@H]3CCCC[C@@H]3O)c(Cl)c(Cl)cc2[nH]1` [I-439, 2-((5,6-dichloro-2-(hydroxymethyl)-1H-benzo[d]imidazol-4-yloxy)methyl)cyclohexanol], the IC50 in test [1] lay in the range of 10 to 100 µM. The “ASMS (R3/R0)” value on Rheb is on record as “C (an affinity (R3/R0)<20%)”.
On the same counts, the results for `Fc1ccccc1Oc1cccc2[nH]ccc12` [I-288, 4-(2-fluorophenoxy)-1H-indole] are 100 to 300 µM and “C (an affinity (R3/R0)<20%)”.
Regarding `Clc1ccc(COc2cc3nc(-c4ccncc4)[nH]c3c(Cl)c2Cl)cc1` [I-354, 6,7-dichloro-5-(4-chlorobenzyloxy)-2-(pyridin-4-yl)-1H-benzo[d]imidazole], the half-maximal inhibitory concentration (IC50) in test [1] was in the range of 10 to 100 µM. Besides, the “ASMS (R3/R0)” value at Rheb is “A (an affinity (R3/R0)>100%)”.
The matching figures for `OCc1nc2cc(OCc3ccccc3)c(Cl)cc2[nH]1` [I-492]: above 100 µM and “C (an affinity (R3/R0)<20%)”.
On the same counts, the results for `Clc1cc2nc(-c3ccnc4[nH]ccc34)[nH]c2cc1Cl` [I-359, 5,6-dichloro-2-(1H-pyrrolo[2,3-b]pyridin-4-yl)-1H-benzo[d]imidazole] are 10 to 100 µM and “A (an affinity (R3/R0)>100%)”.
The matching figures for `O=C(O)c1cc2c(Br)cc(Oc3ccccc3)cc2n1Cc1ccc(C(=O)N(CCO)CCO)cc1` [I-67, 1-(4-(bis(2-hydroxyethyl)carbamoyl)benzyl)-4-bromo-6-phenoxy-1H-indole-2-carboxylic acid]: 10 to 100 µM and “C (an affinity (R3/R0)<20%)”.
On to `Cn1c(C(=O)O)cc2c(Sc3ccc(Cl)cc3)cc(Cl)cc21` [I-207, 6-chloro-4-(4-chlorophenylthio)-1-methyl-1H-indole-2-carboxylic acid], for which the IC50 in test [1] lay within 10 to 100 µM. Also, the “ASMS (R3/R0)” value on Rheb is “B (an affinity (R3/R0) between 100% and 20%)”.
Take `O=C1CCc2ccc(Oc3cc(Cl)cc4[nH]c(C(=O)O)cc34)cc2N1` [I-108, 6-chloro-4-(2-oxo-1,2,3,4-tetrahydroquinolin-7-yloxy)-1H-indole-2-carboxylic acid]: the 50% inhibitory concentration (IC50) in test [1] lay within 100 to 300 µM. For the same compound, the “ASMS (R3/R0)” value on Rheb was “B (an affinity (R3/R0) between 100% and 20%)”.
Regarding `CN1CC(NC(=O)c2cc3c(Sc4ccc(Cl)cc4Cl)cc(Cl)c(Cl)c3[nH]2)C1` [I-21], the IC50 in test [1] is above 100 µM. The “ASMS (R3/R0)” value at Rheb is “C (an affinity (R3/R0)<20%)”.
On the same counts, the results for `OCc1nc2cc(OCc3ccc(Cl)cc3)c(Cl)cc2[nH]1` [I-486, (6-chloro-5-(4-chlorobenzyloxy)-1H-benzo[d]imidazol-2-yl)methanol] are above 100 µM and “A (an affinity (R3/R0)>100%)”.
As to `OCc1cc2c(Sc3ccc(Oc4ccccc4)cc3)cc(Cl)cc2[nH]1` [I-116, (6-chloro-4-(4-phenoxyphenylthio)-1H-indol-2-yl)methanol], the IC50 in test [1] was below 10 µM. The “ASMS (R3/R0)” value at Rheb is “B (an affinity (R3/R0) between 100% and 20%)”.
With `NC(=O)C1CCCN(C(=O)c2cc3c(Sc4ccc(Cl)cc4)cc(Cl)cc3[nH]2)C1` (centres unmarked) [I-132], in test [1], the half-inhibitory concentration (IC50) is above 100 µM. Besides, the “ASMS (R3/R0)” value on Rheb is “B (an affinity (R3/R0) between 100% and 20%)”.
As for `Cn1ccc2c(Sc3ccc(Cl)cc3)cccc21` [I-222], in test [1], the IC50 is above 100 µM. Besides, the “ASMS (R3/R0)” value on Rheb was “B (an affinity (R3/R0) between 100% and 20%)”.
As to `OCCCc1cc2c(Oc3ccccc3)c(Cl)ccc2[nH]1` [I-248, 3-(5-chloro-4-phenoxy-1H-indol-2-yl)propan-1-ol], the IC50 in test [1] was in the range of 10 to 100 µM. On Rheb, the “ASMS (R3/R0)” value is on record as “C (an affinity (R3/R0)<20%)”.
Regarding “1-(4-carboxybenzyl)-6-chloro-4-(3,4-dichlorophenoxy)-1H-indole-2-carboxylic acid [I-140]”, the IC50 in test [1] lay within 10 to 100 µM. The “ASMS (R3/R0)” value at Rheb is “B (an affinity (R3/R0) between 100% and 20%)”.
Consider `CN1CCC(N(C)C(=O)c2ccc(Cn3c(C(=O)O)cc4c(Br)cc(Oc5ccccc5)cc43)cc2)C1` (centres unmarked) [I-46], for which, in test [1], the IC50 was above 3 µM. The “ASMS (R3/R0)” value at Rheb is “C (an affinity (R3/R0)<20%)”.
On the same counts, the results for `CN(C)C(=O)c1ccc(Cn2c(C(=O)O)cc3c4ccccc4c(Sc4ccc(Cl)c(Cl)c4)cc32)cc1` [I-9, 5-(3,4-dichlorophenylthio)-3-(4-(dimethylcarbamoyl)benzyl)-3H-benzo[e]indole-2-carboxylic acid] are below 10 µM and “A (an affinity (R3/R0)>100%)”.
For the compound `O[C@@H]1CCC[C@@H](COc2c(Cl)c(Cl)cc3[nH]c(-c4ccncc4)nc23)C1` [I-323], the IC50 in test [1] was above 3 µM. Further, on Rheb, the “ASMS (R3/R0)” value is “B (an affinity (R3/R0) between 100% and 20%)”.
In the case of “7-chloro-6-(3,4-dichlorophenylthio)-4-fluoro-1H-indole-2-carboxylic acid [I-66]”, the IC50 in test [1] was below 10 µM. Besides, the “ASMS (R3/R0)” value at Rheb was “B (an affinity (R3/R0) between 100% and 20%)”.
On to `Clc1cc2nc(-c3cccnc3)[nH]c2c(Cl)c1Cl` [I-355], for which the IC50 in test [1] is above 100 µM. In addition, at Rheb, the “ASMS (R3/R0)” value is “B (an affinity (R3/R0) between 100% and 20%)”.
Consider `Brc1cc(Oc2ccccc2)cc2[nH]ccc12` [I-239, 4-bromo-6-phenoxy-1H-indole], for which the IC50 in test [1] is 10 to 100 µM. The “ASMS (R3/R0)” value on Rheb was “B (an affinity (R3/R0) between 100% and 20%)”.
`CN(C)CCNC(=O)c1cc2c(Sc3ccc(Cl)cc3Cl)cc(Cl)cc2[nH]1` [I-115, 6-chloro-4-(2,4-dichlorophenylthio)-N-(2-(dimethylamino)ethyl)-1H-indole-2-carboxamide]: the IC50 in test [1] was in the range of 10 to 100 µM. In addition, on Rheb, the “ASMS (R3/R0)” value was “B (an affinity (R3/R0) between 100% and 20%)”.
Consider `CN1CCN(C(=O)c2ccc(-c3nc4cc(Cl)c(Cl)cc4[nH]3)cc2)CC1` [I-349], for which the IC50 in test [1] is above 100 µM. The “ASMS (R3/R0)” value on Rheb was “B (an affinity (R3/R0) between 100% and 20%)”.
As for `CN1CCN(c2cccc(NC(=O)c3cc4c(Sc5ccc(Cl)cc5Cl)cc(Cl)cc4[nH]3)c2)CC1` [I-121, 6-chloro-4-(2,4-dichlorophenylthio)-N-(3-(4-methylpiperazin-1-yl)phenyl)-1H-indole-2-carboxamide], the IC50 in test [1] was below 10 µM. The “ASMS (R3/R0)” value at Rheb was “B (an affinity (R3/R0) between 100% and 20%)”.
In the case of `CC(=O)N[C@@H]1CCCC[C@@H]1COc1c(Cl)c(Cl)cc2[nH]c(CO)nc12` (racemic) [I-369], the IC50 in test [1] was in the range of 10 to 100 µM. For the same compound, at Rheb, the “ASMS (R3/R0)” value was “C (an affinity (R3/R0)<20%)”.
On the same counts, the results for `CN1CCN(c2ccc(NC(=O)c3cc4c(Sc5ccc(Cl)cc5Cl)cc(Cl)cc4[nH]3)cc2F)CC1` [I-113, 6-chloro-4-(2,4-dichlorophenylthio)-N-(3-fluoro-4-(4-methylpiperazin-1-yl)phenyl)-1H-indole-2-carboxamide] are below 10 µM and “C (an affinity (R3/R0)<20%)”.
Take `CN1CCC(CCNC(=O)c2cc3c(-c4cc(Cl)cc(Cl)c4)cc(Cl)cc3[nH]2)CC1` [I-31]: the IC50 in test [1] was above 100 µM. The “ASMS (R3/R0)” value on Rheb is “A (an affinity (R3/R0)>100%)”.
